# Laboratory results: PubChem BioAssay AID220 (DTP/NCI, 2004)
# “And” between values parts separate entries of the source, which are not always exact repeats. Equal entries are not always repeated. Inconclusive results are not listed.
# Test system: CD8F1 mice, subcutaneous mammary adenocarcinoma, T/C%
# Assay: NCI In Vivo Anticancer Drug Screen. Data for tumor model Mammary Adenocarcinoma CD8F1 (subcutaneous) in CD8F1
# Settings: higher = larger tumour
# Method in brief: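 Antitumor activity is assessed in transplantable-tumor mice by comparing the treated group with a vehicle-treated control group. Survival or tumor size serves as the measure, reported as T divided by C.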
# [1] = endpoint: median tumor weight (est.), dose: 3.12 mg/kg/injection, schedule: Q07DX005 (ip), vehicle: saline with Tween-80
# [2] = endpoint: median tumor weight (est.), dose: 6.25 mg/kg/injection, schedule: Q07DX005 (ip), vehicle: saline with Tween-80
# [3] = endpoint: median tumor weight (est.), dose: 12.5 mg/kg/injection, schedule: Q07DX005 (ip), vehicle: saline with Tween-80
# [4] = endpoint: median tumor weight (est.), dose: 25.0 mg/kg/injection, schedule: Q07DX005 (ip), vehicle: saline with Tween-80
# [5] = endpoint: median tumor weight (est.), dose: 50.0 mg/kg/injection, schedule: Q07DX005 (ip), vehicle: saline with Tween-80
# [6] = endpoint: median tumor weight change, dose: 125.0 mg/kg/injection, schedule: Q01DX001 (ip), vehicle: saline with Tween-80
# [7] = endpoint: median tumor weight change, dose: 250.0 mg/kg/injection, schedule: Q01DX001 (ip), vehicle: saline with Tween-80
# [8] = endpoint: median tumor weight change, dose: 500.0 mg/kg/injection, schedule: Q01DX001 (ip), vehicle: saline with Tween-80
# [9] = endpoint: median tumor weight change, dose: 1000.0 mg/kg/injection, schedule: Q01DX001 (ip), vehicle: saline with Tween-80
# [10] = endpoint: median tumor weight change, dose: 50.0 mg/kg/injection, schedule: Q01DX001 (ip), vehicle: saline with Tween-80
structure (smiles),measurement,setting,value
CO[C@H]1C[C@@H]2CC[C@@H](C)[C@@](O)(O2)C(=O)C(=O)N2CCCC[C@H]2C(=O)O[C@H]([C@H](C)C[C@@H]2CC[C@@H](O)[C@H](OC)C2)CC(=O)[C@H](C)C=C(C)[C@@H](O)[C@@H](OC)C(=O)[C@H](C)C[C@H](C)/C=C/C=C/C=C1C,T/C,"endpoint: median tumor weight (est.), dose: 3.12 mg/kg/injection, schedule: Q07DX005 (ip), vehicle: clinical formulation",48 % of control
same,T/C,[1],54 % of control
same,T/C,"endpoint: median tumor weight (est.), dose: 6.25 mg/kg/injection, schedule: Q07DX005 (ip), vehicle: clinical formulation",58 % of control
same,T/C,[2],49 % of control
same,T/C,"endpoint: median tumor weight (est.), dose: 12.5 mg/kg/injection, schedule: Q07DX005 (ip), vehicle: clinical formulation",77 % of control
same,T/C,[3],29 % of control and 40 % of control
same,T/C,"endpoint: median tumor weight (est.), dose: 25.0 mg/kg/injection, schedule: Q07DX005 (ip), vehicle: clinical formulation",60 % of control
same,T/C,[4],25 % of control and 31 % of control
same,T/C,"endpoint: median tumor weight (est.), dose: 50.0 mg/kg/injection, schedule: Q07DX005 (ip), vehicle: clinical formulation",50 % of control
same,T/C,[5],22 % of control and 23 % of control
same,T/C,"endpoint: median tumor weight (est.), dose: 100.0 mg/kg/injection, schedule: Q07DX005 (ip), vehicle: clinical formulation",63 % of control
same,T/C,"endpoint: median tumor weight (est.), dose: 100.0 mg/kg/injection, schedule: Q07DX005 (ip), vehicle: saline with Tween-80",14 % of control and 20 % of control
same,T/C,"endpoint: median tumor weight (est.), dose: 200.0 mg/kg/injection, schedule: Q07DX005 (ip), vehicle: clinical formulation",22 % of control
same,T/C,"endpoint: median tumor weight (est.), dose: 200.0 mg/kg/injection, schedule: Q07DX005 (ip), vehicle: saline with Tween-80",10 % of control and 23 % of control
Nc1nc(N)c2cc(S(=O)(=O)c3ccccc3)ccc2n1,T/C,"endpoint: median tumor weight change, dose: 62.5 mg/kg/injection, schedule: Q01DX001 (ip), vehicle: saline with Tween-80",102 % of control
same,T/C,[6],109 % of control
same,T/C,[7],67 % of control
same,T/C,[8],42 % of control
same,T/C,[9],40 % of control
CCc1nc(N)nc(N)c1-c1ccc(Cl)c([N+](=O)[O-])c1,T/C,"endpoint: median tumor weight change, dose: 6.25 mg/kg/injection, schedule: Q01DX001 (ip), vehicle: saline with Tween-80",47 % of control
same,T/C,"endpoint: median tumor weight change, dose: 12.5 mg/kg/injection, schedule: Q01DX001 (ip), vehicle: saline with Tween-80",39 % of control
same,T/C,"endpoint: median tumor weight change, dose: 25.0 mg/kg/injection, schedule: Q01DX001 (ip), vehicle: saline with Tween-80",20 % of control
same,T/C,[10],38 % of control
same,T/C,"endpoint: median tumor weight change, dose: 100.0 mg/kg/injection, schedule: Q01DX001 (ip), vehicle: saline with Tween-80",47 % of control
CCn1cnc2c(=S)nc[nH]c21,T/C,[6],66 % of control
same,T/C,[7],50 % of control
same,T/C,[8],64 % of control
same,T/C,[9],39 % of control
COc1cc2c[n+](C)c3c(c2cc1OC)Cc1cc2c(cc1-3)OCO2,T/C,"endpoint: median tumor weight change, dose: 62.5 mg/kg/injection, schedule: Q01DX001 (ip), vehicle: suspension in saline",92 % of control
same,T/C,"endpoint: median tumor weight change, dose: 125.0 mg/kg/injection, schedule: Q01DX001 (ip), vehicle: suspension in saline",105 % of control
Cc1c(-c2ccc(-c3ccccc3F)cc2)nc2ccc(F)cc2c1C(=O)O,T/C,"endpoint: median tumor weight change, dose: 5.6 mg/kg/injection, schedule: Q01DX005 (ip), vehicle: water",53 % of control
same,T/C,"endpoint: median tumor weight change, dose: 11.25 mg/kg/injection, schedule: Q01DX005 (ip), vehicle: water",33 % of control
same,T/C,"endpoint: median tumor weight change, dose: 19.0 mg/kg/injection, schedule: Q01DX005 (ip), vehicle: water",74 % of control
same,T/C,"endpoint: median tumor weight change, dose: 22.5 mg/kg/injection, schedule: Q01DX005 (ip), vehicle: water",29 % of control
same,T/C,"endpoint: median tumor weight change, dose: 32.4 mg/kg/injection, schedule: Q01DX005 (ip), vehicle: water",13 % of control
same,T/C,"endpoint: median tumor weight change, dose: 45.0 mg/kg/injection, schedule: Q01DX001 (ip), vehicle: water",56 % of control
same,T/C,"endpoint: median tumor weight change, dose: 45.0 mg/kg/injection, schedule: Q01DX005 (ip), vehicle: water",24 % of control
same,T/C,"endpoint: median tumor weight change, dose: 54.0 mg/kg/injection, schedule: Q01DX005 (ip), vehicle: water",27 % of control
same,T/C,"endpoint: median tumor weight change, dose: 90.0 mg/kg/injection, schedule: Q01DX001 (ip), vehicle: water",82 % of control
same,T/C,"endpoint: median tumor weight change, dose: 90.0 mg/kg/injection, schedule: Q01DX005 (ip), vehicle: water",15 % of control and 20 % of control
CCC[P+](c1ccccc1)(c1ccccc1)c1ccccc1,T/C,"endpoint: mean tumor weight, dose: 3.12 mg/kg/injection, schedule: Q07DX006 (ip), vehicle: saline with Tween-80",211 % of control
same,T/C,"endpoint: mean tumor weight, dose: 6.25 mg/kg/injection, schedule: Q07DX006 (ip), vehicle: saline with Tween-80",241 % of control
same,T/C,"endpoint: mean tumor weight, dose: 12.5 mg/kg/injection, schedule: Q07DX006 (ip), vehicle: saline with Tween-80",40 % of control
same,T/C,"endpoint: mean tumor weight, dose: 25.0 mg/kg/injection, schedule: Q07DX006 (ip), vehicle: saline with Tween-80",72 % of control
same,T/C,"endpoint: mean tumor weight, dose: 50.0 mg/kg/injection, schedule: Q07DX006 (ip), vehicle: saline with Tween-80",38 % of control
same,T/C,[1],83 % of control
same,T/C,"endpoint: median tumor weight (est.), dose: 6.25 mg/kg/injection, schedule: Q07DX004 (ip), vehicle: saline with Tween-80",112 % of control
same,T/C,[2],72 % of control
same,T/C,"endpoint: median tumor weight (est.), dose: 12.5 mg/kg/injection, schedule: Q07DX004 (ip), vehicle: saline with Tween-80",172 % of control
same,T/C,[3],73 % of control
same,T/C,"endpoint: median tumor weight (est.), dose: 25.0 mg/kg/injection, schedule: Q07DX004 (ip), vehicle: saline with Tween-80",183 % of control
same,T/C,[4],34 % of control
same,T/C,"endpoint: median tumor weight (est.), dose: 50.0 mg/kg/injection, schedule: Q07DX004 (ip), vehicle: saline with Tween-80",104 % of control
same,T/C,[5],30 % of control
N[C@@H](Cc1ccc(N(CCCl)CCCl)cc1)C(=O)O,T/C,"endpoint: mean tumor weight, dose: 1.25 mg/kg/injection, schedule: Q01DX009 (ip), vehicle: saline",10 % of control
same,T/C,"endpoint: mean tumor weight, dose: 2.5 mg/kg/injection, schedule: Q01DX009 (ip), vehicle: saline",3 % of control
same,T/C,"endpoint: mean tumor weight, dose: 4.0 mg/kg/injection, schedule: Q07DX006 (ip), vehicle: saline",12 % of control
same,T/C,"endpoint: mean tumor weight, dose: 5.0 mg/kg/injection, schedule: Q07DX006 (ip), vehicle: saline",3 % of control
same,T/C,"endpoint: mean tumor weight, dose: 8.0 mg/kg/injection, schedule: Q07DX006 (ip), vehicle: saline",1 % of control
same,T/C,"endpoint: median tumor weight (est.), dose: 1.0 mg/kg/injection, schedule: Q07DX005 (ip), vehicle: Klucel (hydroxypropylcellulose) (HPC)",91 % of control
same,T/C,"endpoint: median tumor weight (est.), dose: 1.0 mg/kg/injection, schedule: Q07DX005 (ip), vehicle: suspension in saline",60 % of control
same,T/C,"endpoint: median tumor weight (est.), dose: 2.0 mg/kg/injection, schedule: Q01DX001 (ip), vehicle: suspension in saline",93 % of control and 114 % of control
same,T/C,"endpoint: median tumor weight (est.), dose: 2.0 mg/kg/injection, schedule: Q07DX005 (ip), vehicle: Klucel (hydroxypropylcellulose) (HPC)",42 % of control
same,T/C,"endpoint: median tumor weight (est.), dose: 3.0 mg/kg/injection, schedule: Q07DX005 (ip), vehicle: suspension in saline",6 % of control
same,T/C,"endpoint: median tumor weight (est.), dose: 4.0 mg/kg/injection, schedule: Q01DX001 (ip), vehicle: suspension in saline",62 % of control and 70 % of control
same,T/C,"endpoint: median tumor weight (est.), dose: 4.0 mg/kg/injection, schedule: Q07DX005 (ip), vehicle: Klucel (hydroxypropylcellulose) (HPC)",16 % of control
same,T/C,"endpoint: median tumor weight (est.), dose: 4.0 mg/kg/injection, schedule: Q07DX005 (ip), vehicle: suspension in saline",12 % of control
same,T/C,"endpoint: median tumor weight (est.), dose: 5.0 mg/kg/injection, schedule: Q07DX005 (ip), vehicle: suspension in saline",1 % of control
same,T/C,"endpoint: median tumor weight (est.), dose: 5.3 mg/kg/injection, schedule: Q01DX001 (ip), vehicle: suspension in saline",15 % of control
same,T/C,"endpoint: median tumor weight (est.), dose: 8.0 mg/kg/injection, schedule: Q07DX005 (ip), vehicle: Klucel (hydroxypropylcellulose) (HPC)",9 % of control
same,T/C,"endpoint: median tumor weight (est.), dose: 8.0 mg/kg/injection, schedule: Q07DX005 (ip), vehicle: suspension in saline",1 % of control
same,T/C,"endpoint: median tumor weight (est.), dose: 12.0 mg/kg/injection, schedule: Q01DX001 (ip), vehicle: suspension in saline",7 % of control
same,T/C,"endpoint: median tumor weight (est.), dose: 16.0 mg/kg/injection, schedule: Q01DX001 (ip), vehicle: suspension in saline",8 % of control and 18 % of control
same,T/C,"endpoint: median tumor weight (est.), dose: 18.0 mg/kg/injection, schedule: Q01DX001 (ip), vehicle: suspension in saline",7 % of control
same,T/C,"endpoint: median tumor weight change, dose: 3.0 mg/kg/injection, schedule: Q01DX001 (ip), vehicle: saline",72 % of control
same,T/C,"endpoint: median tumor weight change, dose: 5.0 mg/kg/injection, schedule: Q01DX001 (ip), vehicle: saline",4 % of control
same,T/C,"endpoint: median tumor weight change, dose: 10.0 mg/kg/injection, schedule: Q01DX001 (ip), vehicle: saline",-6 % of control
same,T/C,"endpoint: median tumor weight change, dose: 20.0 mg/kg/injection, schedule: Q01DX001 (ip), vehicle: saline",-82 % of control
C[n+]1cccc(NC(=O)c2ccc(NC(=O)C34CCC(C(=O)Nc5ccc(C(=O)Nc6ccc[n+](C)c6)cc5)(CC3)CC4)cc2)c1,T/C,[10],57 % of control and 78 % of control (2×)
same,T/C,"endpoint: median tumor weight change, dose: 200.0 mg/kg/injection, schedule: Q01DX001 (ip), vehicle: saline with Tween-80",-66 % of control
